Test results as given in patent publication US7381748B1, “Compounds and related methods for inhibition of gamma-aminobutyric acid aminotransferase” (Northwestern University, priority 2002, dated 2008).
Counter-ions that a name gives are not always drawn. Like-named read-outs stand apart in the source and are kept apart here.

Legend:
GABA-AT [1] = biological target: T1, GABA-AT (Sus scrofa, UniProt P80147); conditions: cited from earlier work
T1 construct: purchased

GABA-AT [2] = biological target: T1, GABA-AT; assay: Time-dependent inactivation of GABA-AT; assay type: biochemical
Text: Fluorine incorporation may also make a corresponding intermediate sufficiently reactive to be trapped by the enzyme. While the cis isomer is shown in Scheme 6.
Then a secondary plot of half-life versus the reciprocal of inactivator concentration was obtained to determine KI and kinact.

GABA-AT [3] = biological target: T1, GABA-AT; conditions: as substrate of GABA-AT; cited from earlier work

T1 sequence (P80147 29-500): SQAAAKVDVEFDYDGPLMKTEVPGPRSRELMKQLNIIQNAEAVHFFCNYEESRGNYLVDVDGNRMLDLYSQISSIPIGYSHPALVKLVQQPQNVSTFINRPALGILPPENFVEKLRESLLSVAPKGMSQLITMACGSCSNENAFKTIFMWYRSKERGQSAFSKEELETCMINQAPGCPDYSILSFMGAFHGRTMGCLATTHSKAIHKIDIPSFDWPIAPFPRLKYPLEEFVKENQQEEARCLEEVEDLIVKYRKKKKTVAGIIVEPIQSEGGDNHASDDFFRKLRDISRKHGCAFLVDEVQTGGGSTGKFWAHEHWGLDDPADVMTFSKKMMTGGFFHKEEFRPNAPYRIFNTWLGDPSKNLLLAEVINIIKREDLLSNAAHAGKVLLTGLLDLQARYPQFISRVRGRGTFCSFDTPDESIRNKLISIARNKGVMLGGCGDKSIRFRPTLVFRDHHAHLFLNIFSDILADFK

C=C1C[C@H](C(=O)O)C[C@@H]1N [Compound 7, 3β-Amino-4-methylenylcyclopentane-1β-carboxylic acid]
GABA-AT inactivation (in words) (GABA-AT [1]; 2-mercaptoethanol added to the incubation mixture): no inactivation was observed
GABA-AT inactivation (in words) (GABA-AT [1]; no 2-mercaptoethanol added): inactivated GABA-AT

NC1CC(C(=O)O)C/C1=C\F [Compound 20, (E)-(1S, 3S)-3-Amino-4-fluoromethylenyl-1-cyclopentanoic acid, hydrochloride salt]
time-dependent inhibition of GABA-AT (in words) (GABA-AT [2]): potent time-dependent inhibitors of GABA-AT

NC1CC(C(=O)O)C/C1=C/F [Compound 22, (Z)-(1S, 3S)-3-Amino-4-fluoromethylenyl-1-cyclopentanoic acid, hydrochloride salt]
time-dependent inhibition of GABA-AT (in words) (GABA-AT [2]): potent time-dependent inhibitors of GABA-AT

NCCCC(=O)O [GABA, γ-aminobutyric acid]
Km (GABA-AT [3]): 2400 µM
kcat (GABA-AT [3]): 0.817 s⁻¹

C=CC(N)CCC(=O)O (stereo not shown) [vigabatrin]
share of total inactivation accounted for by pathway a (Michael addition) (GABA-AT [1]): 70-75%
